US20230059009A1, “INHIBITORS OF LIN28 AND METHODS OF USE THEREOF” (The Regents of the University of California, priority 2019, published 2023)
“Also recorded” adds a separate entry of the source.

Key:
[1] = Microsomal stability, Human; assay type: in vitro ADME; settings: Conc. 30 uM; for CLint scaled at 30 uM / half-life at 30 uM: microsomes; for half-life at 30 uM: read-out: Microsomal stability T½
MCF7 = assay: Cell viability, CTG, MCF7; assay type: cell-based; settings: Homo sapiens, MCF7 (Breast)
Experimental: (§1) To measure cell viability, cell titer glow (CTG, Promega CellTiter-Glo 2.0 Assay) and MTT assays (SigmaAldrich, Cell Proliferation Kit I) were performed. Briefly, cells were serum starved overnight prior to seeding in 96-well plates. Following 24 h incubation, cells were treated with increasing concentrations of JGJ compounds for 96 hr. At assay read-out, CellTiter-Glo reagent was added and luminescence was measured after 10-minutes incubation at room temperature. For the MTT assay, MTT labeling reagent was added and incubated for 4 h. Subsequently, medium was removed and 50 μL DMSO was added to solubilize the crystals, and absorbance was measured at 570 nm. Cell viability was calculated as (Sample-Background)/(Control-Background). Current standard of care drugs, Enzalutamide, Palbociclib and Cetuximab were used as comparative controls.

H1568 = assay: Cell viability, MTT assay, H1568; assay type: cell-based
Experimental: as §1

CYP 2C8 = molecular target: T1, CYP 2C8 (Homo sapiens, UniProt P10632); assay: CYP inhibition 2C8; assay type: in vitro ADME; set-up: unit not given here; settings: Conc. 30 uM
T1 sequence (P10632 1-490): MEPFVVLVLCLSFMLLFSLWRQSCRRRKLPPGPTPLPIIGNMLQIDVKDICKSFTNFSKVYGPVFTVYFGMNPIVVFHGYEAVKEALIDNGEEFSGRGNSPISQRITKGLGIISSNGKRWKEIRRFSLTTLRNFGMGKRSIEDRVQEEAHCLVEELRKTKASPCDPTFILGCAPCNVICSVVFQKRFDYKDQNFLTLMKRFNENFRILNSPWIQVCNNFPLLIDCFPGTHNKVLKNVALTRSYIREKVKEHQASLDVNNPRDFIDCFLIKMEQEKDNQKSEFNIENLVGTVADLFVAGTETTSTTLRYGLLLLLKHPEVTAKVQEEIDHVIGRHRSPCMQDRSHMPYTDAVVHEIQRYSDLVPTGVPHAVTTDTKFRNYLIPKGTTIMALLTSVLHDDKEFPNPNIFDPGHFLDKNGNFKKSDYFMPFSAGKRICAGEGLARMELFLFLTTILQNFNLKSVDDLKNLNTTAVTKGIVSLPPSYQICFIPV

CYP 2C19 = CYP 2C19 (Homo sapiens, UniProt P33261); assay: CYP inhibition 2C19; assay type: in vitro ADME; set-up: unit not given here; settings: Conc. 30 uM
Sequence of CYP 2C19 (P33261 whole entry): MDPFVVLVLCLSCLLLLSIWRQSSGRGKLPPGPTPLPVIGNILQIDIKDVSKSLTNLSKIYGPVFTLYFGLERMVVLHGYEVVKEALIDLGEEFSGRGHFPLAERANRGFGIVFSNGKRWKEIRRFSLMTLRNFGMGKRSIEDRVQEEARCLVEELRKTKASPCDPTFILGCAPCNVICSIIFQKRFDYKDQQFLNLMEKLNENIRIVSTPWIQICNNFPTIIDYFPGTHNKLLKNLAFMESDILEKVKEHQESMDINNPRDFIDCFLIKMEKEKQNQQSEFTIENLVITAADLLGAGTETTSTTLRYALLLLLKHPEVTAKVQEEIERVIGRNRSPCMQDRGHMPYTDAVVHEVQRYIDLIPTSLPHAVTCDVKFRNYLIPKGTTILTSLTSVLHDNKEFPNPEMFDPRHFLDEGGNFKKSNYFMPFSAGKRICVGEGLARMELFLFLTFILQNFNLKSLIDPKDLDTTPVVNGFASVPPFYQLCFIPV

MDA-MB231 = assay: Cell viability, CTG, MDA-MB231; assay type: cell-based; settings: Homo sapiens, MDA-MB-231, MDA-MB231 (Breast)
Experimental: as §1

CYP 2D6 = CYP 2D6 (Homo sapiens, UniProt P10635); assay: CYP inhibition 2D6; assay type: in vitro ADME; set-up: unit not given here; settings: Conc. 30 uM
Sequence of CYP 2D6 (P10635 whole entry): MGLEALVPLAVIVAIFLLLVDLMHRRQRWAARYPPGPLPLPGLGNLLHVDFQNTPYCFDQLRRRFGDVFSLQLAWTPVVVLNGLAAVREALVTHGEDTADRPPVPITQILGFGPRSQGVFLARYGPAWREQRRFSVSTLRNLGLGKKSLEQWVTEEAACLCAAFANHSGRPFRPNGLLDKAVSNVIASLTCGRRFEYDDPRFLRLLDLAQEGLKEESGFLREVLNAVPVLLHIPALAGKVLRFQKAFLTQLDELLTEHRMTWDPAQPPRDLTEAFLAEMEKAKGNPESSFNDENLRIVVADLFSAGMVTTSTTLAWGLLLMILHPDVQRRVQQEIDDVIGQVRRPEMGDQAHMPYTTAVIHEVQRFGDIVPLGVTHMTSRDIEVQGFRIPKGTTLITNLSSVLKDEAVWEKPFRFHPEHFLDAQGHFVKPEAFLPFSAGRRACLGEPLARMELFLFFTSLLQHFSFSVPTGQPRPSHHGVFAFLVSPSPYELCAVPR

[2] = test system: let-7a/b and let-7 target genes; assay: miRNA and let-7 target gene expression in primary AML patient cells; assay type: cell-based, human; settings: primary AML cells from three relapsed patients; 80-120 μM, 72 h
From the text: (§2) To measure the complete degree to which LN1632 regulates gene expression, we carried out RNA sequencing (RNAseq) in LSC-like Kasumi-1 cells. […] Importantly, we confirmed this gene expression pattern in primary AML cells from three relapsed patients (validated for LIN28B overexpression compared to healthy WBM). […] This is important because NFκB1, regulated by let-7 through IL6 (23) is, together with other BCL-2 family members (BAX, BCL2L15 and BMF, FIG. 5A), a well characterized gene associated with unique properties of LSC survival and AML relapse (45, 59, 60). […] We next explored the effect of LN1632 on primary AML cells.

MYC-driven cancers = assay: Cell viability and cell counting assays in cancer cells; assay type: cell-based; settings: TNBC, CRPC, lung and colorectal adenocarcinoma cells
Experimental: To test whether LN1632 and novel analogs thereof affect cancer cell growth, cell viability and cell counting assays in TNBC (FIG. 14B-D), castration resistant prostate cancer cells (CRPC, FIG. 15A-C) and colorectal cancer cells (CRC, FIG. 15A-C) were performed.
as §1

[3] = test system: THP-1 cells (high LIN28B); assay: Subcutaneous THP-1 AML xenograft; assay type: in vivo, NSG / NSGS mice; settings: for Tumor growth: 100 mg/kg
Experimental: (§3) Subsequently, the tumor suppressive effect of LN1632 in cancer in vivo was assessed. High LIN28B expressing THP-1 AML cells (2×10^6 cells) were implanted in NSGS mice (cell suspension in matrigel, 3:1) and at d+12 or d+8 (tumor size=50 mm^2) injection of LN1632 IP at 100 mg/kg daily was initiated. […] The effect of LN1632 in a systemic Kasumi-1 xenograft was also assessed. […] The effects of LN1632 to cytarabine chemotherapy (Ara-C) was also compared, as previously described (74). THP-1 AML cells were subcutaneously implanted (1.5×10^6 cells, high LIN28B) in NSGS mice. Daily IP injections with 100 mg/kg LN1632, 60 mg/kg cytarabine chemotherapy (Ara-C), or vehicle was started at +d3 post AML cell implantation and continued until the vehicle group reached maximal allowed tumor size (250 mm^2).

[4] = test system: LIN28B-expressing Ewing Sarcoma (EwS); settings: recent report (72); cited from earlier work
Kasumi-1 = assay: Systemic Kasumi-1 AML xenograft; assay type: in vivo, mice; settings: systemic Kasumi-1 xenograft; for Animal survival: IP 100 mg/kg every other day for 21 d; for Tumor burden (bioluminescence imaging): IP 100 mg/kg every other day, d+26
Experimental: as §3

LIN28B protein = LIN28B protein (Homo sapiens, UniProt Q6ZN17); assay: Western blot of LIN28B protein levels in AML cells; settings: Kasumi-1 and THP-1; 1632 120-160 μM
Sequence of LIN28B protein (Q6ZN17 whole entry): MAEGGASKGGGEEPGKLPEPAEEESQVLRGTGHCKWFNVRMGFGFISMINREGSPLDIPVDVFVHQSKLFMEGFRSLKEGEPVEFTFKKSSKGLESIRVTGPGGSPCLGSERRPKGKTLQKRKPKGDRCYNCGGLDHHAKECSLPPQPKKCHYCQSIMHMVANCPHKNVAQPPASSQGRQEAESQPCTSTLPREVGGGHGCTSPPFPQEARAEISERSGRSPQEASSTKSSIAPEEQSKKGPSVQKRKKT
Experimental: Thus, we subcutaneously (subQ) implanted THP-1 (high LIN28B) cells or MOLM-13 (no LIN28B) into NSG mice and 12 d later (tumor size=40 mm^2) started administration of 1632 IP at 100 mg/kg every other day.

[5] = test system: let-7 target genes / MYC target gene signatures; assay: RNA sequencing in Kasumi-1 cells; assay type: cell-based, human; settings: 40 μM or 100 μM LN1632 vs control
From the text: as §2
To determine the degree to which LN1632 regulates gene expression, RNA sequencing was performed in human Kasumi-1 AML cells. […] In addition, ingenuity pathway analysis predicted suppression of upstream signaling molecules IL6 and MYC (FIG. 9C).

Caco2 = Caco2 permeability; assay type: in vitro ADME; settings: Conc. 100 uM

CC(=O)Nc1cccc(-c2ccc3ncc(C)n3n2)c1 [JGJ007, N-(3-(3-Methylimidazo[1,2-b]pyridazin-6-yl)phenyl)acetamide]
Microsomal stability % Remaining at T30 [1]: T30 = 72.8% | CLint scaled at 30 uM [1]: 19 mL/min/kg | half-life at 30 uM [1]: 65.6 min | IC50 (MCF7): 115 µM | IC50 (H1568; NCI-H1568, H1568 (Lung)): 47 µM | CYP inhibition 2C8 (CYP 2C8): 19.11 | CYP inhibition 2C19 (CYP 2C19): 37.08 | IC50 (MDA-MB231): 43 µM | CYP inhibition 2D6 (CYP 2D6): 54.08

Cc1cnc2ccc(-c3cccc(F)c3)nn12 [JGJ015, 6-(3-Fluorophenyl)-3-methylimidazo[1,2-b]pyridazine]
Microsomal stability % Remaining at T30 [1]: T30 = 6.9% | CLint scaled at 30 uM [1]: 161 mL/min/kg | half-life at 30 uM [1]: 7.76 min | CYP inhibition 2C8 (CYP 2C8): 17.82 | CYP inhibition 2C19 (CYP 2C19): 49.8 | IC50 (MDA-MB231): 75 µM | CYP inhibition 2D6 (CYP 2D6): 19.38

CC(=O)N(C)c1cccc(-c2ccc3nnc(C)n3n2)c1 [LN1632]
Mature let-7a/b and let-7 target gene expression [2]: dose-dependent, significant upregulation of mature let-7a/b and downregulation of multiple let-7 target genes | Proliferation and apoptosis of cancer cells (MYC-driven cancers): reduced proliferation and induced apoptosis preferentially in MYC-driven cancers | Tumor growth ([3]; THP-1 subQ in NSG mice, 100 mg/kg IP every other day): significantly slowed tumor growth; also recorded: significantly reduced tumor growth | Tumor growth ([3]; THP-1 subQ in NSGS mice, 100 mg/kg IP daily): significantly reduced tumor growth 19 days post injection; also recorded: significantly slowed tumor growth | AML tumor proliferation, LN1632 vs Ara-C ([3]; THP-1 subQ in NSGS mice, daily IP 100 mg/kg LN1632 or 60 mg/kg Ara-C from +d3): increased inhibition of AML tumor proliferation compared to Ara-C or vehicle treated mice; also recorded: inhibited proliferation | Suppression of Ewing Sarcoma [4]: selectively suppresses LIN28B-expressing Ewing Sarcoma (EwS) but not LIN28B depleted EwS | IC50 (H1568; H1568 (Lung)): 128 µM | Animal survival (Kasumi-1; 100 mg/kg): significantly prolonged animal survival; also recorded: prolongs survival | Animal survival (Kasumi-1; listed as 1632, 100 mg/kg): prolongs survival; also recorded: significantly prolonged animal survival | Tumor burden (bioluminescence imaging) (Kasumi-1; 100 mg/kg): decreased tumor burden; also recorded: reduces tumor burden | Tumor burden (bioluminescence imaging) (Kasumi-1; listed as 1632, 100 mg/kg): reduces tumor burden; also recorded: decreased tumor burden | LIN28B protein levels (LIN28B protein): inhibits LIN28B protein expression; also recorded: dose-dependently decreases LIN28B protein levels | Gene expression (RNAseq) [5]: significant downregulation of a panoply of direct let-7 target genes; also recorded: significantly downregulated genes of the HALLMARK_MYC-TARGETS_V1 gene signature | Caco2 Mean A-B % Recovery (Caco2): 89.4% | Caco2 efflux ratio (Caco2): 1.08 | Caco2 permeability Papp A-B (Caco2): A-B: 20.9 10^−6 cm/s | Caco2 permeability Papp B-A (Caco2): B-A: 22.7 10^−6 cm/s
